Measured values from patent US20250295661A1, “MENIN-MLL INHIBITORS FOR THE TREATMENT OF CANCER” (Syndax Pharmaceuticals, Inc., priority 2022, published 2025).

Tests used:
[1] = Population PK model simulation of Compound A dosing regimens (one-compartment, first-order absorption, lag time); design: species or system human
Protocol: The rationale for these doses is based on PK data from 53 patients treated in Arm A (no strong cytochrome P450 CYP3A4 inhibitor) and Arm B (with a strong CYP3A4 inhibitor) of Study Compound A which were analyzed with a preliminary population PK model. The model was a one-compartment PK model with first-order absorption (ka) and lag time (Tlag) that described the individual PK data. The data confirmed the expected effect of a strong CYP3A4 inhibitor comedication in Arm B on the drug elimination rate (k) and apparent volume of distribution (Vz/F).
The starting dose of 163 mg TID of Compound A alone was selected because it provides Cmax, Cmin, as shown in FIGS. 2A-B, and AUC0-24 approximately half that of 163 mg q12 h with a strong CYP3A4 inhibitor, as shown in FIG. 2C; the lower exposure provides a margin of safety in case CRC patients are more sensitive to the effects of Compound A than acute myeloid leukemia patients. The dose of 276 mg TID is expected to show exposure similar to that for 163 mg q12 h with a strong CYP3A inhibitor based on 3 key PK parameters (Cmax, Cmin, and AUC0-24), as shown in FIGS. 2A-C and Table 3A.

dogs = test: GLP 28-day dog toxicology study / QTc in dogs; format: in vivo
>125 molecular targets = test: Off-target screening assays
rats = test: GLP 28-day rat toxicology study; format: in vivo

CCN(C(=O)c1cc(F)ccc1Oc1cncnc1N1CC2(CCN(C[C@H]3CC[C@H](NS(=O)(=O)CC)CC3)CC2)C1)C(C)C [Compound A]
Cmax, Cmin and AUC0-24 relative to 163 mg q12 h with a strong CYP3A4 inhibitor ([1]; 163 mg TID of Compound A alone): approximately half
Exposure (Cmax, Cmin, AUC0-24) compared with 163 mg q12 h with a strong CYP3A inhibitor ([1]; 276 mg TID without CYP3A4 inhibitor): similar
Potential main targeted organ of toxicity: heart (dogs; 28-day dog toxicology study): electrocardiogram [ECG] changes in dogs
Potential main targeted organs of toxicity (other) (dogs; 28-day rat and dog toxicology studies, dog): liver, bone marrow, lymphoid tissues, male reproductive system, and female reproductive system
QTc finding in dogs (dogs; dogs treated with Compound A): Prolonged QTc
Cross-reactivity in off-target screening (>125 molecular targets): no cross-reactivity
Potential main targeted organs of toxicity (other) (rats; 28-day rat and dog toxicology studies, rat): liver, bone marrow, lymphoid tissues, male reproductive system, and female reproductive system
Potential main targeted organ of toxicity: eyes (rats; 28-day rat toxicology study): cataracts in rats only
